Each structure is given as a SMILES string.

One assay concerns vGAT. Description: vGAT synaptic puncta immunohistochemistry. It is filed as in vivo, mouse. The settings on record: 5×FAD mice, visual cortex. Here is the method: Loss of synapses and neurons are closely associated with higher neuroinflammatory response and cognitive decline in AD. Therefore, synaptic markers in the visual cortex of Plx3397 and/or GENUS treated mice were evaluated. […] Thus, whether these treatments had any effect on neuronal density by immunohistochemical analysis of neuronal marker NeuN was examined (Synaptic Systems, #266 004) positive cells (FIG. 4A).
vGAT and vGLUT1 puncta: LSM 710, with a 40× objective, was used to acquire the images. The entire […] thickness of the slices was acquired in Z stacks—80 per image (step of 0.5 μm). The spot-count inbuilt function in Imarisx64 9.3 was used to count cells automatically.
vGAT and vGLUT1 puncta: LSM 710, with a 40× objective, was used to acquire the images. The entire […] thickness of the slices was acquired in Z stacks—80 per image (step of 0.5 μm). The spot-count inbuilt function in Imarisx64 9.3 (cohortl) and 9.7 (cohort 2) was used to count cells automatically.

Another assay deals with CK-p25 mice. Description: Novel object recognition test in CK-p25 mice. It is filed as in vivo, mouse. Here is the method: Given the neuroprotective effect of Plx3397+GENUS treatment, whether this treatment also impacted learning and memory was evaluated. Mice were tested in an open field (OF) and assessed for changes in anxiety and activity levels, followed by a novel object recognition (NOR) test of memory. 10-month-1d 5×FAD mice were treated with Plx3397. Following 20 days administration of Plx3397 chow, untreated- and Plx3397 treated 5×FAD mice (which continued PLX administration) were subjected to 30 days of daily GENUS. Mice were tested in OF and NOR during the last week of these treatments. […] Next, CK-p25 mice were treated for 42 days and assessed behavioral performance.
For OF, mice were introduced into an open field box (dimensions: length=460 mm, width=460 mm and height=400 mm; TSE-Systems) and were tracked using Noldus (Ethovision) for 12 min, with time spent in the center and peripheral area of the arena measured. […] Mouse behavior was monitored for 7 min. Time spent exploring both the familiar and novel objects was recorded using Noldus and computed offline. Percentage of novelty preference index was calculated as follows: time exploring novel object (Nt) divided by total time exploring novel and familiar (Ft) objects and presented in %−{[Nt/Nt+Ft]*100}. […]

In the case of `FC(F)(F)c1ccc(CNc2ccc(Cc3c[nH]c4ncc(Cl)cc34)cn2)cn1` [Plx3397, Pexidartinib], the vGAT synaptic puncta in the assay on vGAT (IHC) is given as 109.9±2.235 % of no treatment control. Also, the “vGAT positive synaptic puncta” value in the assay on vGAT (vs untreated) is reported as “significant increase”. Also, the “novel object recognition memory in the NOR test” value with CK-p25 mice (CK-p25 mice treated for 42 days) is “significantly improved”. Moreover, in the assay with CK-p25 mice (CK-p25 mice, control 54.82±3.70), the “novel object recognition memory in the NOR test (novelty index)” value is 70.52±2.89.

The values are drawn from patent US20230181905A1, “Systems, Devices, and Methods for Enhancing the Neuroprotective Effects of Non-Invasive Gamma Stimulation with Pharmacological Agents” (Massachusetts Institute of Technology, priority 2021, published 2023).
